Results on 13 compounds are retold here after ChEMBL document CHEMBL1201862, “PubChem BioAssay data set” (2004).

Assay in all cases: DTP human tumour cell line panel, 48 h
For assay [1], the system named is ACHN.
Assay [2] deals with COLO 205.
Assay [3] deals with EKVX.
For assay [4], the system named is HCT-116.
The test system of assay [5] is KM12.
The test system of assay [6] is LOX IMVI.
The test system of assay [7] is M14.
Assay [8] concerns Malme-3M.
Assay [9] deals with NCI-H23.
Assay [10] has as its system SF-268.
Assay [11] deals with SF-539.
The subject of assay [12] is SK-MEL-5.
Assay [13] concerns SNB-75.
For assay [14], the system named is SR.
Assay [15] relates to SW-620.
Assay [16] relates to UACC-257.

The structures appear in SMILES notation.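 Where inhibition never reached the appropriate level, the endpoint shown equals the highest concentration tested. Otherwise, values were interpolated linearly from a five-concentration, 48-hour dose response in 96-well plates. Here, GI50 denotes the concentration required for 50% inhibition of growth.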 Active and inactive are the calls of the source. Rule as the data show it: active = GI50 up to about 1.1 µM and inactive = higher.

In general, GI50 refers to the concentration giving 50% growth inhibition. Regarding `CCCCc1c2c(nc3c1CCC/C3=C\c1ccccc1)C(=O)CCC2`, the GI50 in assay [1] was 25.7 µM (inactive); in assay [2], 22.8 µM (inactive); in assay [3], 19.1 µM (inactive); in assay [4], 20 µM (inactive); in assay [5], 18.7 µM (inactive); in assay [6] it was 17.6 µM (inactive). In addition, the GI50 in [7] is 21.1 µM (inactive); in assay [8], 26 µM (inactive); in assay [9], 24.2 µM (inactive); in assay [10] it was 21.3 µM (inactive); in assay [11] it was 18.4 µM (inactive); in assay [12], 16.3 µM (inactive). Besides, the GI50 in assay [13] is 29.1 µM (inactive); in assay [14] it was 7.24 µM (inactive); in [15] it was 22 µM (inactive); in [16], 17 µM (inactive).

Regarding `c1cncc(CSc2nc3ccccc3nc2-c2cccs2)c1`, the GI50 was 36.9 µM (inactive) in assay [1]; > 100 µM (inactive) in assay [2]; 98.4 µM (inactive) in assay [3]; > 100 µM (inactive) in assay [4]; 48.6 µM (inactive) in [5]; > 100 µM (inactive) in assay [6]. The GI50 in assay [7] was 92.5 µM (inactive); in assay [8], 46.1 µM (inactive); in assay [9], > 100 µM (inactive); in [10], 7.71 µM (inactive); in assay [11], 71.8 µM (inactive); in assay [12], > 100 µM (inactive). Besides, the GI50 is > 100 µM (inactive) in assay [13], 40.9 µM (inactive) in assay [14], 91.4 µM (inactive) in assay [15] and > 100 µM (inactive) in assay [16].

With `Cc1cc(Br)ccc1/N=N/C1C(=O)ON=C1c1ccccc1` (configuration not stated), the GI50 was 63.4 µM (inactive) in assay [1]; 16 µM (inactive) in [2]; 67 µM (inactive) in [3]; 46.5 µM (inactive) in [4]; > 100 µM (inactive) in assay [5]; 63.4 µM (inactive) in [6]. The GI50 in assay [7] is > 100 µM (inactive); in [8] it was > 100 µM (inactive); in [9], > 100 µM (inactive); in [10], > 100 µM (inactive); in [11], > 100 µM (inactive); in [12], 53.5 µM (inactive). Further, the GI50 in [13] was > 100 µM (inactive); in assay [14], 48 µM (inactive); in assay [15], > 100 µM (inactive); in assay [16], > 100 µM (inactive).

`N#CC(C(=O)C(=O)Nc1ccccc1)c1ccccc1` (configuration not stated): the GI50 in [1], in [3], in assay [4], in [5], in assay [6] and in [7] was > 100 µM (inactive) throughout. For the same compound, the GI50 in [8], in assay [9], in [10], in assay [11], in [13] and in assay [14] was > 100 µM (inactive) throughout. Moreover, the GI50 in [15] and in assay [16] was > 100 µM (inactive) each time.

With `COC(=O)C(/C(=N/NC(N)=O)C(=O)Nc1c(C)cccc1C(C)(C)C)c1nc2ccc(Cl)cc2nc1O` (configuration not stated), the GI50 was > 100 µM (inactive) in assay [1]; 75.5 µM (inactive) in assay [3]; > 100 µM (inactive) in assay [4]; > 100 µM (inactive) in [5]; > 100 µM (inactive) in assay [6]; > 100 µM (inactive) in [7]. For the same compound, the GI50 in [8], in assay [9], in assay [10], in assay [11], in assay [12] and in assay [13] was > 100 µM (inactive) in each case. Further, the GI50 in assay [14] is 37.5 µM (inactive); in assay [15], > 100 µM (inactive); in assay [16] it was > 100 µM (inactive).

Consider `CC1OC(OCC2COC(O)(Oc3c(-c4ccc(O)c(O)c4)oc4cc(O)cc(O)c4c3=O)C(O)C2O)C(O)C(O)C1O` (configuration not stated), for which the GI50 in assay [1], in [2], in assay [3], in assay [4], in assay [5] and in assay [6] was > 100 µM (inactive) each time. The GI50 in assay [7], in assay [8], in assay [9], in assay [10], in assay [11] and in [12] was > 100 µM (inactive) in each case. The GI50 in assay [13], in assay [14], in [15] and in assay [16] was > 100 µM (inactive) in each case.

For the compound `OCCNCO`, the GI50 in assay [1], in assay [2], in [3], in assay [4], in assay [5] and in [6] was > 100 µM (inactive) each time. Besides, the GI50 in assay [7], in assay [9], in [10], in assay [11], in assay [12] and in assay [13] was > 100 µM (inactive) in each case. The GI50 in assay [14], in assay [15] and in assay [16] was > 100 µM (inactive) in each case.

On to `CS(=O)(=O)C1(Br)S(=O)(=O)OCCOS1(=O)=O`, for which the GI50 in assay [1], in assay [2], in assay [3], in assay [4], in [6] and in assay [7] was > 100 µM (inactive) in each case. The GI50 in [8], in assay [9], in [10], in assay [11], in assay [12] and in [13] was > 100 µM (inactive) in each case. For the same compound, the GI50 in [14], in assay [15] and in assay [16] was > 100 µM (inactive) each time.

For `CCOC(=O)C1=C(C)NC2=C(C(=O)N(c3ccccc3)C2c2ccccc2)C1c1ccccc1` (configuration not stated), the GI50 in assay [1] was 14.1 µM (inactive); in assay [2], 18.7 µM (inactive); in assay [3] it was 17.9 µM (inactive); in assay [4], 16.9 µM (inactive); in [5] it was 17.1 µM (inactive); in assay [6], 18.1 µM (inactive). The GI50 in [7] is 16.7 µM (inactive); in [8] it was 17.9 µM (inactive); in assay [9], 17.2 µM (inactive); in assay [10], 15.7 µM (inactive); in assay [11] it was 17.8 µM (inactive); in assay [12], 15.1 µM (inactive). Moreover, the GI50 is 12.3 µM (inactive) in [13], 16.9 µM (inactive) in assay [14], 19.8 µM (inactive) in assay [15] and 18.2 µM (inactive) in assay [16].

Turning to `COc1ccc(-c2oc(/C=N/c3ccccc3)c([N+](=O)[O-])c2-c2ccc(OC)c(OC)c2)cc1OC`, the GI50 in [1], in assay [2], in [4], in assay [5], in assay [6] and in assay [7] was > 100 µM (inactive) each time. In addition, the GI50 in [8], in assay [9], in assay [10], in assay [11], in assay [12] and in assay [13] was > 100 µM (inactive) in each case. The GI50 in assay [14], in assay [15] and in assay [16] was > 100 µM (inactive) in each case.

Regarding `C(=C\C(Sc1ccccc1)c1ccccc1)/NNC1=NN=C(c2ccccc2)C(c2ccccc2)N1` (configuration not stated), the GI50 in assay [1] was 44.7 µM (inactive); in assay [2] it was 32.2 µM (inactive); in assay [3], 32.9 µM (inactive); in assay [4], 42.2 µM (inactive); in [5], 58.3 µM (inactive); in assay [6], 51.9 µM (inactive). Besides, the GI50 in [7] is 75 µM (inactive); in [8], 50 µM (inactive); in assay [9], 31.2 µM (inactive); in [10] it was > 100 µM (inactive); in [11], 65.3 µM (inactive); in assay [12], 45.9 µM (inactive). Also, the GI50 is > 100 µM (inactive) in assay [13], 25.9 µM (inactive) in [14], 21.8 µM (inactive) in [15] and > 100 µM (inactive) in assay [16].

Regarding `O=[N+]([O-])C1C2C=CC(C2)[C@H]1c1ccco1` (some centres not stated), the GI50 in [1], in [2], in assay [3], in assay [4], in [5] and in [6] was > 100 µM (inactive) in each case. Also, the GI50 in [7] is > 100 µM (inactive); in assay [8] it was > 100 µM (inactive); in assay [9] it was 0.384 µM (active); in [10], > 100 µM (inactive); in [11], > 100 µM (inactive); in assay [12], > 100 µM (inactive). Also, the GI50 in [13], in assay [14], in assay [15] and in assay [16] was > 100 µM (inactive) throughout.

Take `c1ccc(COc2ccc3[nH]c4c5c6ccccc6nc-5c[nH]c4c3c2)cc1`: the GI50 in [1] was 17.5 µM (inactive); in assay [2] it was 19 µM (inactive); in assay [3] it was 17.7 µM (inactive); in [4] it was 12.2 µM (inactive); in [5], 14.7 µM (inactive); in assay [6] it was 18.7 µM (inactive). Also, the GI50 is 13.7 µM (inactive) in assay [7]; 13.5 µM (inactive) in assay [8]; 18.3 µM (inactive) in [9]; 17 µM (inactive) in [10]; 15.7 µM (inactive) in assay [11]; 15.7 µM (inactive) in assay [12]. Moreover, the GI50 in [13] is 12.7 µM (inactive); in assay [14], 8.95 µM (inactive); in assay [15], 17.3 µM (inactive); in assay [16], 18 µM (inactive).
